Data reported in publication PMC3478282, “Probing the Putative Active Site of YjdL: An Unusual Proton-Coupled Oligopeptide Transporter from E. coli” (PLoS ONE, 2012).
Substitutions are numbered along the chain they refer to. Residues, ends and D or L forms follow the SMILES beside them.

How the values were obtained:
Format in all cases: cell-based, E. coli
[1] = target: T1, YjdL Tyr113Phe (Escherichia coli, UniProt P39276, Y113F); assay: β-Ala-Lys(AMCA) uptake and inhibition assay, YjdL Tyr113Phe; details: for IC50: 0.2 mM β-Ala-Lys(AMCA), 5 min incubation, pH 6.5, ±SEM, n≥3
T1 construct: expressed in transfected cells; host or cells: E. coli BL21(DE3)pLysS, pTTQ18-yjdL mutant (QuikChange)
T1 sequence (P39276 1-485 Y113F): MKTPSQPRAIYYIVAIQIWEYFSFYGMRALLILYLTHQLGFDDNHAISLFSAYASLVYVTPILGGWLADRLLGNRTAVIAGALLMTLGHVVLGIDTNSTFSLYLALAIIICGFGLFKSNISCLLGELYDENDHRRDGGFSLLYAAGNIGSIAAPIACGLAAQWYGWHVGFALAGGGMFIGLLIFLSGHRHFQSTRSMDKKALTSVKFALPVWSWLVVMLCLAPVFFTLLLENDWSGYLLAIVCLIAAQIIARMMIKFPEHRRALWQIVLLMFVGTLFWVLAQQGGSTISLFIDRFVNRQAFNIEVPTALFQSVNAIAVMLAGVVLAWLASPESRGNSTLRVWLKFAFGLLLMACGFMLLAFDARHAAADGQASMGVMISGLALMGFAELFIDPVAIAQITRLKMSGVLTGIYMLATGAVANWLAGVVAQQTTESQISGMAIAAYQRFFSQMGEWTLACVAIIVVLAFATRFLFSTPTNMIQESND
Description: (§1) Plasmids were transformed into E. coli BL21(DE3)pLysS cells by heat shock and transformants were selected on agar plates containing 100 µg/mL ampicillin and 34 µg/mL chloramphenicol. Single transformants were inoculated into 2 mL LB-media with antibiotics as above and grown overnight. The cultures were diluted 1∶50 in 5 mL LB-media with antibiotics as above, and at an OD600 of 0.5–0.8 protein expression was induced by the addition of 1 mM isopropyl β-D-1-thiogalactopyranoside (IPTG). The cells were harvested after three hours of induction by centrifugation and resuspended in uptake buffer (50 mM MES pH 6.5, 140 mM NaCl, 5.4 mM KCl, 1.8 mM CaCl2, 0.8 mM MgSO4, and 5 mM glucose).
(§2) Uptake assays were performed as previously described, [20]. In a final assay volume of 100 µL; 0.2 mM β-Ala-Lys-N-7-amino-4-methylcoumarin-3-acetic acid (β-Ala-Lys(AMCA), Biotrend) (10 µL) and various concentrations of ligands (purchased from Bachem or Sigma-Aldrich) or uptake buffer (50 µL) were incubated with bacterial cell suspension (OD600 = 10, 40 µL) at 37°C. After 5 min, the uptake was stopped by addition of 500 µL ice-cold uptake buffer followed by immediate centrifugation and washing twice in ice-cold uptake buffer. Finally the cell pellet was resuspended in 100 µL uptake buffer, and the uptake was quantified by fluorescence measurements (excitation at 340 nm and emission at 460 nm) on a Safire 2 fluorimeter. Non-specific uptake was measured as described above on IPTG-induced E. coli BL21(DE3)pLysS cells harboring the empty pTTQ18 vector. All uptake assay experiments were reproduced at least three times independently and data analyses were performed using GraphPad Prism ver. 5.

[2] = target: T2, WT-YjdL (Escherichia coli, UniProt P39276); assay: cell-based; details: for IC50: IC50 (inhibition of β-Ala-Lys(AMCA) uptake)
T2 construct: expressed in transfected cells; host or cells: E. coli BL21(DE3)pLysS, pTTQ18-yjdL, IPTG-induced
T2 sequence (P39276 1-485): T1 sequence (P39276 1-485 Y113F) with F113Y
Description: as §1, with “The cells were harvested after three hours of induction by centrifugation and resuspended in uptake buffer (50 mM MES pH 6.5, 140 mM NaCl, 5.4 mM KCl, 1.8 mM CaCl2, 0.8 mM MgSO4, and 5 mM glucose).” left out
as §2

[3] = target: T3, YjdL Tyr21Phe (Escherichia coli, UniProt P39276, Y21F); assay: β-Ala-Lys(AMCA) uptake and inhibition assay, YjdL Tyr21Phe; details: 0.2 mM β-Ala-Lys(AMCA), 5 min incubation, pH 6.5; ±SEM, n≥3
T3 construct: expressed in transfected cells; host or cells: E. coli BL21(DE3)pLysS, pTTQ18-yjdL mutant (QuikChange)
T3 sequence (P39276 1-485 Y21F): T1 sequence (P39276 1-485 Y113F) with Y21F, F113Y
Description: as §1, §2

Compound	IC50 [1] [mM]	IC50 at pH 6.5 (50 mM MES) relative to previous studies at pH 7.4 (25 mM Tris/HEPES), WT-YjdL [2]	IC50 ([2]; WT-YjdL a) [mM]	IC50 ([2]; WT-YjdL b) [mM]	IC50 [3] [mM]	increase of β-Ala-Lys(AMCA) uptake, YjdL Tyr113Phe ([1]; 0.2 mM, 5 min, pH 6.5 (Figure 3)) [fold]	Kt ([2]; WT YjdL, data not shown) [mM]
C[C@H](N)C(=O)N[C@@H](C)C(=O)O [Ala-Ala] (H-Ala-Ala-OH)	1.9 ± 0.1	eight	2.8 ± 0.6	2.2 ± 0.1	4.5 ± 0.3		
C[C@H](N)C(=O)N[C@@H](CCCCN)C(=O)O [Ala-Lys] (H-Ala-Lys-OH)	0.34 ± 0.04		0.28 ± 0.01	0.89 ± 0.16	0.45 ± 0.07		
C[C@H](NC(=O)[C@@H](N)Cc1ccc(O)cc1)C(=O)O [Tyr-Ala]	1.3 ± 0.3	same	2.4 ± 0.4	2.4 ± 0.2	4.7 ± 0.8		
β-Ala-Lys-N-7-amino-4-methylcoumarin-3-acetic acid [β-Ala-Lys(AMCA)]						~2	~5
